Data as given in patent publication EP1322622B1, “NEW N, N'-DISUBSTITUTED BENZIMIDAZOLONE DERIVATIVES WITH AFFINITY AT THE SEROTONIN AND DOPAMINE RECEPTORS” (Sprout Pharmaceuticals, Inc., priority 2000, dated 2002).
Where two headings read alike, the source gives them in different places.

Experiments:
5-HT1A human receptors = target: T1, 5-HT1A human receptors (Homo sapiens, UniProt P08908); experiment: 5-HT1A Radioligand Receptor Binding Assay ([3H]-8-OH-DPAT, CHO cell membranes); settings: for inhibition at 0.1 µM: compound at 10^-7 M, singlicate, [3H]-8-OH-DPAT 0.6-0.7 nM, read-out: 5-HT1A receptor binding assay % inhib. (10^-7 M)
T1 construct: expressed in transfected cells; host or cells: CHO cells
T1 sequence (P08908 1-422): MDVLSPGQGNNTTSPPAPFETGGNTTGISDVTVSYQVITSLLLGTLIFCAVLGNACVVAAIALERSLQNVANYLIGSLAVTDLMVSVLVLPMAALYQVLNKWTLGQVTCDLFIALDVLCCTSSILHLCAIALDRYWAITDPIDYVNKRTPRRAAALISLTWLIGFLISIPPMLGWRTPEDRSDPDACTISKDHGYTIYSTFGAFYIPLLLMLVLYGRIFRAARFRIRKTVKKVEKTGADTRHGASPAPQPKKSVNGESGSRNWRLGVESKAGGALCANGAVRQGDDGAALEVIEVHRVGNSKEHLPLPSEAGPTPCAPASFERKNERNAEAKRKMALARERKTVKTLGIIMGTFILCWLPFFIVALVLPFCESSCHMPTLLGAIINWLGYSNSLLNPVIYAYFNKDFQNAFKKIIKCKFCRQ
Protocol: Membranes from CHO cells, expressing 5-HT1A human receptors were suspended in incubation buffer.
The compounds were tested in singlicate at one concentration (10^-7 M) in a total volume of 1000 µl. 980 µl of diluted membranes, 10 µl DMSO or unlabelled ligand and 10 µl of [^3H]-8-OH-DPAT (0.6-0.7 nM) were incubated for 60 min at 27 °C. The reaction was stopped by rapid filtration through Tomtec cell Harvester (48 wells) using Filtermat B (presoaked in 0.1% PEI) filters. […] Non specific binding was determined in the presence of 5-HT (10^-5 M).
(§1) The specific radioligand binding to the receptor was defined by the difference between total binding and non specific binding, determined in the presence of an excess of unlabelled ligand. Results were expressed as percentage of control specific binding obtained in the presence of the compounds.
The affinity values (IC50) for the compounds were obtained by a non linear least squares regression analysis on the basis of a one binding site model.

CHO/5-HT1A cells = target: T2, CHO/5-HT1A cells (Homo sapiens, UniProt P08908); experiment: 5-HT1A Functional assay (cAMP); format: cell-based; settings: 10 µM compound, % inhibition of the cAMP accumulation induced by 10 µM FSK; for inhibition at 10 µM: read-out: 5-HT1A cAMP % inhib.
T2 construct: expressed in transfected cells; host or cells: CHO/5-HT1A cells
T2 sequence (P08908 1-422): T1 sequence (P08908 1-422)
Protocol: CHO/5-HT1A cells were random seeded at a density of about 200,000/well in 24 well plates the day prior to the experiment. On the day of the experiment, cells were pretreated for 15 min at 37 °C with 500 µM isobuthylmethylxantine (IBMX) dissolved in culture medium without serum. Wells were then divided in different groups in duplicate as follows: control, 10 µM FSK, 10 µM FSK + 1 µM 5-HT as positive standard and 10 µM FSK + 10 µM of the different compound under evaluation. Sample solutions were added and incubated for additional 15 min at 37 °C. After incubation, medium was aspirated and the reaction stopped by adding 200 µl of lysis buffer. Plates were shaken for 5 min, then the lysate was removed and samples were stored at 4 °C until the day of the assay. For the cAMP evaluation, samples were properly diluted and the cAMP content was measured by an enzymeimmunoassay system.

D4 human receptors = target: T3, D4 human receptors (Homo sapiens, UniProt P21917); experiment: D4 Radioligand Receptor Binding Assay ([3H] YM-09151-2, CHO cell membranes); settings: compound at 10^-7 M, singlicate; [3H] YM-09151-2 0.15-0.25 nM; read-out: D4 receptor binding assay % inhib. (10^-7 M)
T3 construct: expressed in transfected cells; host or cells: CHO cells
T3 sequence (P21917 1-419): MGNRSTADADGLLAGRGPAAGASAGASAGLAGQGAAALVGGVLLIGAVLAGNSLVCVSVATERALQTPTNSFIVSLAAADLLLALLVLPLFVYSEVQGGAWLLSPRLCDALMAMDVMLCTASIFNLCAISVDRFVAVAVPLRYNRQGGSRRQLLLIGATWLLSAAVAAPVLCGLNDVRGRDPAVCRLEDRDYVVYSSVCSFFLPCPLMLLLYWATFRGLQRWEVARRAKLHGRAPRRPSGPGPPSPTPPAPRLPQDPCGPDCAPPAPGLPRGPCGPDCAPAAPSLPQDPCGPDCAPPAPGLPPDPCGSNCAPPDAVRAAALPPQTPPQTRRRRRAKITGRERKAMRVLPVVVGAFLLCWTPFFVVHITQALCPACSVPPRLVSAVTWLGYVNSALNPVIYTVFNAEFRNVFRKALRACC
Protocol: Membranes from CHO cells, expressing D4 human receptors were suspended in incubation buffer.
Binding assays were performed in MultiProbe 204 pipetting system (Packard), according to a predetermined mapping, consistent with the software Screen. The compounds were tested in singlicate at one concentration (10^-7 M) in a total volume of 1000 µl (980 µl of diluted membranes, 10 µl DMSO or unlabelled ligand and 10 µl of [^3H] YM-09151-2 (0.15-0.25 nM). After incubation for 120 min at 27 °C, the reaction was stopped by rapid filtration through Tomtec cell Harvester (48 wells) using Filtermat B (presoaked in 0.1% PEI) filters. Filters were washed with ice-cold 50 mM Tris-HCl (pH 7.4) buffer (9 x 700 µl), dryed, covered with MeltiLex B/HS (Wallac) scintillator sheets and heated in oven at 80-90 °C for about 10 min, transferred into plastic sample bags (Wallac), sealed and put into 1024 Beta Plate scintillation counter (Wallac). Non specific binding was determined in the presence of clozapine dissolved in DMSO to a final concentration of 10^-5 M.
as §1

[1] = [3H]-8-OH-DPAT displacement, CHO membranes, read-out: 5-HT1A receptor binding IC50

SMILES | inhibition at 0.1 µM (5-HT1A human receptors) [%] | inhibition at 10 µM (CHO/5-HT1A cells) [%] | inhibition at 0.1 µM (D4 human receptors) [%] | IC50 (5-HT1A human receptors; [1]) [nM] | IC50 (5-HT1A human receptors) [nM] | 5-HT1A cAMP % inhib. (CHO/5-HT1A cells) [%]
O=c1n(C/C=C\CN2CCN(c3cccc(C(F)(F)F)c3)CC2)c2ccccc2n1CCN1CCCCC1 [compound 318] | 92 | 61 | 36 |  |  | 
CCNC(=O)OCCn1c(=O)n(CC=CCN2CC=C(c3ccccc3)CC2)c2ccccc21 [compound 404] | 95 | 60 | 34 |  |  | 
O=c1n(C/C=C\CN2CC=C(c3ccccc3)CC2)c2ccccc2n1CCO [compound 370] | 93 | 52 | 60 |  |  | 
O=c1n(C/C=C/CN2CCN(c3cccc(C(F)(F)F)c3)CC2)c2ccccc2n1CCN1CCCCC1 [compound 335] | 95 | 69 | 55 | 3.5 |  | 
O=c1n(C/C=C/CN2CCc3c([nH]c4ccccc34)C2)c2ccccc2n1CCN1CCCCC1 [compound 333] | 99 | 67 | 80 |  |  | 
CC(=O)NCCn1c(=O)n(C/C=C\CN2CCN(c3cccc(C)c3C)CC2)c2ccccc21 [compound 468] |  | 66 |  | 3.1 |  | 
O=c1n(C/C=C\CN2CCN(c3cccc(C(F)(F)F)c3)CC2)c2ccccc2n1CCO [compound 369] | 96 | 84 | 59 |  |  | 
O=c1n(CCO)c2ccccc2n1CCCCN1CCN(c2cccc(C(F)(F)F)c2)CC1 [compound 64] | 92 | 52 | 43 |  | 12 | 
CS(=O)(=O)NCCn1c(=O)n(C/C=C\CN2CC=C(c3ccccc3)CC2)c2ccccc21 [compound 504] | 93 | 50 | 34 |  |  | 
COCCn1c(=O)n(CCCCN2CCN(c3cccc(Cl)c3)CC2)c2ccccc21 [compound 5] | 92 | 63 | 54 | 13 |  | 
CCNC(=O)OCCn1c(=O)n(CC=CCN2CCN(c3cccc(C(F)(F)F)c3)CC2)c2ccccc21 [compound 420] |  |  |  |  |  | 87
CS(=O)(=O)NCCn1c(=O)n(C/C=C\CN2CCN(c3cccc(C(F)(F)F)c3)CC2)c2ccccc21 [compound 503] |  | 87 |  |  |  | 
O=c1n(C/C=C\CN2CCN(c3cccc(Cl)c3)CC2)c2ccccc2n1CCN1CCOCC1 [compound 263] |  | 63 |  |  |  | 
CCNC(=O)OCCn1c(=O)n(CC=CCN2CC=C(c3ccccc3)CC2)c2ccccc21 [compound 421] |  |  |  |  |  | 56
COCCn1c(=O)n(CCN2CCN(c3cccc(Cl)c3)CC2)c2ccccc21 [compound 164] | 96 | 73 | 41 | 4.2 |  | 
CC(=O)NCCn1c(=O)n(CCN2CCN(c3cccc(C)c3C)CC2)c2ccccc21 [compound 446] | 92 | 81 | 31 | 7.3 |  | 
CS(=O)(=O)NCCn1c(=O)n(C/C=C/CN2CCN(c3ccccn3)CC2)c2ccccc21 [compound 520] |  | 70 |  |  |  | 
COCCn1c(=O)n(C/C=C/CN2CCN(c3cccc(Cl)c3)CC2)c2ccccc21 [compound 297] |  | 74 |  |  |  | 

SMILES | inhibition at 0.1 µM (5-HT1A human receptors) [%] | inhibition at 10 µM (CHO/5-HT1A cells) [%] | inhibition at 0.1 µM (D4 human receptors) [%] | IC50 (5-HT1A human receptors; [1]) [nM] | IC50 (5-HT1A human receptors) [nM] | 5-HT1A cAMP % inhib. (CHO/5-HT1A cells) [%]
COCCn1c(=O)n(CC=CCN2CCN(c3cccc(C(F)(F)F)c3)CC2)c2ccccc21 [compound 284] |  | 82 |  |  |  | 
O=c1n(C/C=C/CN2CCN(c3ccccn3)CC2)c2ccccc2n1CCO [compound 381] |  | 79 |  |  |  | 
Cc1cccc(N2CCN(CC=CCn3c(=O)n(CCNS(C)(=O)=O)c4ccccc43)CC2)c1 [compound 514] |  | 67 |  |  |  | 
CCNC(=O)OCCn1c(=O)n(C/C=C/CN2CCN(c3cccc(Cl)c3)CC2)c2ccccc21 [compound 416] | 96 | 77 | 39 |  |  | 
O=c1n(CCO)c2ccccc2n1CCCCN1CCN(c2cccc(Cl)c2)CC1 [compound 60] | 93 | 65 | 82 | 6.2 |  | 
Cc1cccc(N2CCN(CCn3c(=O)n(CCN4CCCCC4)c4ccccc43)CC2)c1C [compound 158] | 95 | 48 | 72 | 13 |  | 
CS(=O)(=O)NCCn1c(=O)n(CC=CCN2CCN(c3cccc(Cl)c3)CC2)c2ccccc21 [compound 521] |  |  |  |  |  | 67
CC(=O)NCCn1c(=O)n(C/C=C\CN2CCN(c3ccccc3Cl)CC2)c2ccccc21 [compound 472] |  | 67 |  |  |  | 
O=c1n(C/C=C/CN2CCN(c3ccccn3)CC2)c2ccccc2n1CCN1CCOCC1 [compound 347] |  | 65 |  |  |  | 
O=c1n(C/C=C\CN2CCN(c3cccc(Cl)c3)CC2)c2ccccc2n1CCO [compound 365] | 89 | 82 |  |  |  | 
CS(=O)(=O)NCCn1c(=O)n(CC=CCN2CCN(c3cccc(Cl)c3)CC2)c2ccccc21 [compound 499] |  | 74 |  |  |  | 
Cc1cccc(N2CCN(C/C=C/Cn3c(=O)n(CCNS(C)(=O)=O)c4ccccc43)CC2)c1 [compound 536] |  | 55 |  | 9.5 |  | 
O=c1n(C/C=C/CN2CCN(c3cccc(C(F)(F)F)c3)CC2)c2ccccc2n1CCN1CCOCC1 [compound 352] |  | 79 |  |  |  | 
CCNC(=O)OCCn1c(=O)n(CCN2CCN(c3ccccc3Cl)CC2)c2ccccc21 [compound 219] | 89 | 61 | 37 | 15 |  | 
CCNC(=O)OCCn1c(=O)n(CC=CCN2CCN(c3cccc(C(F)(F)F)c3)CC2)c2ccccc21 [compound 403] |  | 84 |  |  |  | 
COCCn1c(=O)n(CC=CCN2CCN(c3cccc(C(F)(F)F)c3)CC2)c2ccccc21 [compound 301] |  |  |  |  |  | 83
CCNC(=O)OCCn1c(=O)n(CCN2CCN(c3cccc(Cl)c3)CC2)c2ccccc21 [compound 202] |  | 72 |  | 1.7 |  | 
CCNC(=O)OCCn1c(=O)n(CCN2CCN(c3cccc(C)c3)CC2)c2ccccc21 [compound 217] |  | 68 |  | 5.2 |  | 
